Source: ChEMBL document CHEMBL1201862, “PubChem BioAssay data set” (2004)
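Growth conditions: 96-well plates. Treatment: test compound, 48 hours, 5 concentrations. Analysis: linear interpolation between bracketing concentrations; unreached endpoints set to highest concentration. GI50 is the concentration that inhibits growth by half.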 The source made the active and inactive calls. No stated cut-off is given here; in the data, active = GI50 up to about 1.1 µM and inactive = higher.

Assays:
Assay in all cases: NCI anticancer screen, dose series, 48 h
[1] = system: TK-10
[2] = system: SNB-19
[3] = system: RXF 393
[4] = system: MCF7
[5] = system: SK-MEL-2
[6] = system: MOLT-4
[7] = system: HOP-92
[8] = system: K562
[9] = system: Malme-3M
[10] = system: SF-539
[11] = system: ACHN
[12] = system: MDA-N
[13] = system: DU-145
[14] = system: SF-295
[15] = system: HCT-116
[16] = system: NCI-H522
[17] = system: A498
[18] = system: M14
[19] = system: UO-31
[20] = system: M19-MEL

## O=C(O)c1ccccc1/C=C1/Cc2ccc3c(c2C1=O)CCC3
[1]
  GI50: 90.8 µM (inactive)
[2]
  GI50: 54.7 µM (inactive)
[3]
  GI50: 38.2 µM (inactive)
[4]
  GI50: 49.5 µM (inactive)
[5]
  GI50: 12.7 µM (inactive)
[6]
  GI50: 33.8 µM (inactive)
[7]
  GI50: 24.9 µM (inactive)
[8]
  GI50: 33.3 µM (inactive)
[9]
  GI50: 50.8 µM (inactive)
[10]
  GI50: 23.9 µM (inactive)
[11]
  GI50: 37.7 µM (inactive)
[12]
  GI50: 29.6 µM (inactive)
[13]
  GI50: 68.9 µM (inactive)
[14]
  GI50: 42.4 µM (inactive)
[15]
  GI50: 30.7 µM (inactive)
[16]
  GI50: 42.4 µM (inactive)
[17]
  GI50: 38.3 µM (inactive)
[18]
  GI50: 35.5 µM (inactive)
[19]
  GI50: 39.7 µM (inactive)

## Cc1cc(CN(Cc2ccccc2)Cc2nc3ccccc3[nH]2)c(O)c(CN(Cc2nc3ccccc3[nH]2)Cc2nc3ccccc3[nH]2)c1
[1]
  GI50: 4.71 µM (inactive)
[2]
  GI50: 5.2 µM (inactive)
[3]
  GI50: 13.5 µM (inactive)
[4]
  GI50: 2.66 µM (inactive)
[5]
  GI50: 10.8 µM (inactive)
[6]
  GI50: 4.26 µM (inactive)
[7]
  GI50: 3.48 µM (inactive)
[8]
  GI50: 2.63 µM (inactive)
[9]
  GI50: 24.9 µM (inactive)
[10]
  GI50: 2.92 µM (inactive)
[11]
  GI50: 3.38 µM (inactive)
[12]
  GI50: 6.43 µM (inactive)
[13]
  GI50: 23.4 µM (inactive)
[14]
  GI50: 6.15 µM (inactive)
[15]
  GI50: 4.16 µM (inactive)
[16]
  GI50: 16.2 µM (inactive)
[17]
  GI50: 10.2 µM (inactive)
[18]
  GI50: 5.94 µM (inactive)
[19]
  GI50: 7.03 µM (inactive)

## CCOC1=C(c2ccccc2)N2CCCCC2O1 (centres undefined)
[1]
  GI50: 5.32 µM (inactive)
[2]
  GI50: 3.76 µM (inactive)
[3]
  GI50: 7.89 µM (inactive)
[4]
  GI50: 3.76 µM (inactive)
[5]
  GI50: 2.25 µM (inactive)
[6]
  GI50: 4.27 µM (inactive)
[7]
  GI50: 2.21 µM (inactive)
[8]
  GI50: 2.03 µM (inactive)
[9]
  GI50: 5.7 µM (inactive)
[10]
  GI50: 9.29 µM (inactive)
[11]
  GI50: 4.68 µM (inactive)
[12]
  GI50: 4.03 µM (inactive)
[13]
  GI50: 4.19 µM (inactive)
[14]
  GI50: 3.26 µM (inactive)
[15]
  GI50: 2.88 µM (inactive)
[16]
  GI50: 3.38 µM (inactive)
[17]
  GI50: 8.73 µM (inactive)
[18]
  GI50: 3.46 µM (inactive)
[19]
  GI50: 19.8 µM (inactive)

## CC(C)(C)C(=O)OCC(COC(=O)C(C)(C)C)[N+](=O)[O-]
[1]
  GI50: > 100 µM (inactive)
[2]
  GI50: > 100 µM (inactive)
[3]
  GI50: > 100 µM (inactive)
[5]
  GI50: > 100 µM (inactive)
[6]
  GI50: 80.2 µM (inactive)
[20]
  GI50: > 100 µM (inactive)
[8]
  GI50: 47.6 µM (inactive)
[9]
  GI50: > 100 µM (inactive)
[10]
  GI50: > 100 µM (inactive)
[11]
  GI50: > 100 µM (inactive)
[14]
  GI50: > 100 µM (inactive)
[15]
  GI50: > 100 µM (inactive)
[16]
  GI50: 19.1 µM (inactive)
[18]
  GI50: > 100 µM (inactive)
[19]
  GI50: > 100 µM (inactive)

## NC(=O)c1ncn(C2OC(CO)C(O)C2O)c1NC=O (centres undefined)
[1]
  GI50: > 100 µM (inactive)
[2]
  GI50: > 100 µM (inactive)
[3]
  GI50: > 100 µM (inactive)
[4]
  GI50: > 100 µM (inactive)
[5]
  GI50: > 100 µM (inactive)
[6]
  GI50: > 100 µM (inactive)
[7]
  GI50: > 100 µM (inactive)
[8]
  GI50: > 100 µM (inactive)
[9]
  GI50: > 100 µM (inactive)
[10]
  GI50: > 100 µM (inactive)
[11]
  GI50: > 100 µM (inactive)
[12]
  GI50: > 100 µM (inactive)
[13]
  GI50: > 100 µM (inactive)
[14]
  GI50: > 100 µM (inactive)
[15]
  GI50: > 100 µM (inactive)
[16]
  GI50: > 100 µM (inactive)
[17]
  GI50: > 100 µM (inactive)
[18]
  GI50: > 100 µM (inactive)
[19]
  GI50: > 100 µM (inactive)

## C[N+](C)(C)C(Cc1c[nH]c(=S)[nH]1)C(=O)O (centres undefined)
[1]
  GI50: > 100 µM (inactive)
[2]
  GI50: > 100 µM (inactive)
[3]
  GI50: > 100 µM (inactive)
[4]
  GI50: > 100 µM (inactive)
[5]
  GI50: > 100 µM (inactive)
[6]
  GI50: > 100 µM (inactive)
[7]
  GI50: > 100 µM (inactive)
[8]
  GI50: > 100 µM (inactive)
[9]
  GI50: > 100 µM (inactive)
[10]
  GI50: > 100 µM (inactive)
[11]
  GI50: > 100 µM (inactive)
[12]
  GI50: > 100 µM (inactive)
[13]
  GI50: > 100 µM (inactive)
[14]
  GI50: > 100 µM (inactive)
[15]
  GI50: > 100 µM (inactive)
[16]
  GI50: > 100 µM (inactive)
[17]
  GI50: > 100 µM (inactive)
[18]
  GI50: > 100 µM (inactive)
[19]
  GI50: > 100 µM (inactive)

## O=[N+]([O-])c1ccc(C(Nc2ccccc2)c2ccc3cccnc3c2O)cc1 (centres undefined)
[1]
  GI50: 8.49 µM (inactive)
[2]
  GI50: 7.74 µM (inactive)
[3]
  GI50: 5.15 µM (inactive)
[4]
  GI50: 4.83 µM (inactive)
[5]
  GI50: 24.3 µM (inactive)
[6]
  GI50: 0.423 µM (active)
[7]
  GI50: 7.87 µM (inactive)
[8]
  GI50: 12.6 µM (inactive)
[9]
  GI50: 14.7 µM (inactive)
[10]
  GI50: 3.72 µM (inactive)
[11]
  GI50: 5.61 µM (inactive)
[12]
  GI50: 23.7 µM (inactive)
[13]
  GI50: 9.14 µM (inactive)
[14]
  GI50: 4.37 µM (inactive)
[15]
  GI50: 7.8 µM (inactive)
[16]
  GI50: 4.24 µM (inactive)
[17]
  GI50: 24.1 µM (inactive)
[18]
  GI50: 9.4 µM (inactive)
[19]
  GI50: 6.78 µM (inactive)
